This test has as its system P388 leukemia ip, CD2F1 mice, survival T/C. Put plainly: NCI In Vivo Anticancer Drug Screen. Data for tumor model P388 Leukemia (intraperitoneal) in CD2F1 (CDF1) mice. To be noted: endpoint: median survival time, higher = longer survival. The gist of the method:
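Mice carrying the transplanted tumor received test compound or vehicle. Survival was recorded in each group, and the value is the treated-group measurement divided by that of the vehicle-treated control group.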

Setting [1] is: dose: 50.0 mg/kg/injection, schedule: Q01DX009 (ip), vehicle: saline.
Where [2] appears, read: dose: 100.0 mg/kg/injection, schedule: Q01DX009 (ip), vehicle: saline.
Where [3] appears, read: dose: 200.0 mg/kg/injection, schedule: Q01DX009 (ip), vehicle: saline.
Setting [4] is: dose: 50.0 mg/kg/injection, schedule: Q01DX005 (ip), vehicle: Klucel (hydroxypropylcellulose) (HPC).
Where [5] appears, read: dose: 100.0 mg/kg/injection, schedule: Q01DX005 (ip), vehicle: Klucel (hydroxypropylcellulose) (HPC).
Where [6] appears, read: dose: 200.0 mg/kg/injection, schedule: Q01DX005 (ip), vehicle: Klucel (hydroxypropylcellulose) (HPC).
Setting [7] is: dose: 50.0 mg/kg/injection, schedule: Q01DX009 (ip), vehicle: saline with Tween-80.
Setting [8] is: dose: 100.0 mg/kg/injection, schedule: Q01DX009 (ip), vehicle: saline with Tween-80.
Where [9] appears, read: dose: 200.0 mg/kg/injection, schedule: Q01DX009 (ip), vehicle: saline with Tween-80.
The mark [10] stands for this setting: dose: 60.0 mg/kg/injection, schedule: Q01DX005 (ip), vehicle: saline with Tween-80.
The mark [11] stands for this setting: dose: 120.0 mg/kg/injection, schedule: Q01DX005 (ip), vehicle: saline with Tween-80.
The mark [12] stands for this setting: dose: 240.0 mg/kg/injection, schedule: Q01DX005 (ip), vehicle: saline with Tween-80.
Where [13] appears, read: dose: 100.0 mg/kg/injection, schedule: Q04DX003 (ip), vehicle: saline with Tween-80.
The mark [14] stands for this setting: dose: 200.0 mg/kg/injection, schedule: Q04DX003 (ip), vehicle: saline with Tween-80.
The mark [15] stands for this setting: dose: 25.0 mg/kg/injection, schedule: Q01DX009 (ip), vehicle: saline with Tween-80.

Each structure is given as a SMILES string. Where “and” joins values, the source holds several entries; their conditions need not be identical. Equal values may be shown once. Inconclusive results and toxic doses are left out.

Turning to `C=C(C)C(=O)N1c2ccc(OC)cc2CC1C(=O)OCC` (configuration not stated), the T/C (dose: 60.0 mg/kg/injection, schedule: Q01DX005 (ip), vehicle: saline + Tween-80 + alcohol) was 102 % of control; the T/C (dose: 120.0 mg/kg/injection, schedule: Q01DX005 (ip), vehicle: saline + Tween-80 + alcohol) was 100 % of control; the T/C (dose: 240.0 mg/kg/injection, schedule: Q01DX005 (ip), vehicle: saline + Tween-80 + alcohol) was 97 % of control.
Turning to `CN(C)c1ccc(/C=N/c2nc(-c3ccccc3)cs2)cc1`, the T/C is 115 % of control under setting [1], 111 % of control under setting [2] and 101 % of control under setting [3].
As to `C/C(=N/NC(=O)c1ccccc1)C(=NO)/C(C)=N\NC(=O)c1ccccc1`, the T/C is 100 % of control (dose: 100.0 mg/kg/injection, schedule: Q01DX001 (ip), vehicle: saline); 97 % of control (dose: 200.0 mg/kg/injection, schedule: Q01DX001 (ip), vehicle: saline); 100 % of control (dose: 400.0 mg/kg/injection, schedule: Q01DX001 (ip), vehicle: saline).
On to `O=c1c2ccccc2oc2c(Br)c3c(c(O)c12)CCCC3`, for which the T/C is 103 % of control under setting [4], 87 % of control under setting [5] and 96 % of control under setting [6].
As to `N#CC1(OC2OC(CO)C(O)C(O)C2O)C=CCC1` (configuration not stated), the T/C is 101 % of control (dose: 25.0 mg/kg/injection, schedule: Q01DX005 (ip), vehicle: saline); 103 % of control (dose: 50.0 mg/kg/injection, schedule: Q01DX005 (ip), vehicle: saline); 98 % of control (dose: 100.0 mg/kg/injection, schedule: Q01DX005 (ip), vehicle: saline); 96 % of control (dose: 200.0 mg/kg/injection, schedule: Q01DX005 (ip), vehicle: saline).
In the case of `CCCC1(c2ccccc2)CC(=O)NC1=O` (configuration not stated), the T/C runs as follows: (dose: 60.0 mg/kg/injection, schedule: Q01DX005 (ip), vehicle: saline) 98 % of control; (dose: 120.0 mg/kg/injection, schedule: Q01DX005 (ip), vehicle: saline) 98 % of control; (dose: 240.0 mg/kg/injection, schedule: Q01DX005 (ip), vehicle: saline) 102 % of control.
For `CC1C2CCC(C2)C1CNCC1C2CCC(C2)C1C` (configuration not stated), the T/C reads like this: (dose: 12.5 mg/kg/injection, schedule: Q01DX005 (ip), vehicle: saline with Tween-80) 100 % of control; (dose: 25.0 mg/kg/injection, schedule: Q01DX005 (ip), vehicle: saline with Tween-80) 103 % of control; (dose: 50.0 mg/kg/injection, schedule: Q01DX005 (ip), vehicle: saline with Tween-80) 101 % of control and 105 % of control.
`O=C1SC(c2ccccc2)=S=C1c1ccccc1`: the T/C under setting [7] was 104 % of control, the T/C under setting [8] is 104 % of control and the T/C under setting [9] is 124 % of control.
As to `O=c1[nH]c(=O)c2[nH]c(Br)nc2[nH]1`, the T/C reads like this: under setting [4], 102 % of control; under setting [5], 100 % of control; under setting [6], 100 % of control.
On to `COc1cc(C2c3cc4c(cc3OC(C)(OC)C2C(C)=O)OCO4)cc(OC)c1O` (configuration not stated), for which the T/C is 91 % of control under setting [10], 95 % of control under setting [11] and 97 % of control under setting [12].
For the compound `ClCC1CCN(Cc2ccccc2)CC1`, the T/C was 97 % of control under setting [13] and 100 % of control under setting [14].
As to `CCCCNC(=S)NNc1nc(N(CC)CC)nc(N(CC)CC)n1`, the T/C reads like this: (dose: 100.0 mg/kg/injection, schedule: Q04DX002 (ip), vehicle: saline with Tween-80) 99 % of control; (dose: 200.0 mg/kg/injection, schedule: Q04DX002 (ip), vehicle: saline with Tween-80) 99 % of control.
For the compound `CCC(=O)N/C(N)=N\C(N)=S`, the T/C by setting is: under setting [4], 101 % of control; under setting [5], 96 % of control; under setting [6], 104 % of control.
As for `O=[N+]([O-])c1cc([N+](=O)[O-])c2ccccc2c1NS(=O)(=O)c1ccc(Br)cc1`, the T/C under setting [15] is 103 % of control and the T/C under setting [7] was 117 % of control.
For `Cc1nc(-c2ccc(Cl)cc2)c(Cc2c(O)ccc3ccccc23)c(=O)[nH]1`, the T/C under setting [1] was 102 % of control, the T/C under setting [2] is 102 % of control and the T/C under setting [3] was 102 % of control.
Consider `CC1(C)CC2C1(O)CCC1(C)C(O)C=CC21CO` (configuration not stated), for which the T/C is 98 % of control (dose: 6.0 mg/kg/injection, schedule: Q01DX005 (ip), vehicle: Klucel (hydroxypropylcellulose) (HPC)); 95 % of control (dose: 12.0 mg/kg/injection, schedule: Q01DX005 (ip), vehicle: Klucel (hydroxypropylcellulose) (HPC)); 100 % of control (dose: 24.0 mg/kg/injection, schedule: Q01DX005 (ip), vehicle: Klucel (hydroxypropylcellulose) (HPC)); 93 % of control (dose: 25.0 mg/kg/injection, schedule: Q01DX005 (ip), vehicle: Klucel (hydroxypropylcellulose) (HPC)); 90 % of control (dose: 48.0 mg/kg/injection, schedule: Q01DX005 (ip), vehicle: Klucel (hydroxypropylcellulose) (HPC)); 93 % of control under setting [4]. The T/C under setting [5] was 90 % of control.
As for `[CH3][Ga]([CH3])[n]1cccn1`, the T/C reads like this: (dose: 3.12 mg/kg/injection, schedule: Q01DX005 (ip), vehicle: Klucel (hydroxypropylcellulose) (HPC)) 100 % of control; (dose: 6.25 mg/kg/injection, schedule: Q01DX005 (ip), vehicle: Klucel (hydroxypropylcellulose) (HPC)) 111 % of control.
`CCCCN(C)N=Nc1c(C(N)=O)n[nH]c1C`: the T/C is, setting by setting: (dose: 44.0 mg/kg/injection, schedule: Q04DX003 (ip), vehicle: saline with Tween-80) 122 % of control; under setting [13], 150 % of control; under setting [14], 90 % of control.
For the compound `C/C(=N\N=C(\[Se])N1CCN(c2ccccn2)CC1)c1ccccn1`, the T/C is 108 % of control (dose: 12.5 mg/kg/injection, schedule: Q04DX003 (ip), vehicle: saline with Tween-80); 109 % of control and 116 % of control (dose: 25.0 mg/kg/injection, schedule: Q04DX003 (ip), vehicle: saline with Tween-80); 113 % of control (dose: 50.0 mg/kg/injection, schedule: Q04DX003 (ip), vehicle: saline with Tween-80); 115 % of control and 124 % of control under setting [13]; 115 % of control under setting [14].
Turning to `CC(C)S.[Cu+2]`, the T/C reads like this: (dose: 6.25 mg/kg/injection, schedule: Q01DX009 (ip), vehicle: saline with Tween-80) 114 % of control; (dose: 12.5 mg/kg/injection, schedule: Q01DX009 (ip), vehicle: saline with Tween-80) 97 % of control; under setting [15], 109 % of control.
Turning to `N#Cc1nc(CC(=O)c2ccc(Cl)c(Cl)c2)c(CC(=O)c2ccc(Cl)c(Cl)c2)nc1C#N`, the T/C is 114 % of control under setting [10], 120 % of control under setting [11] and 86 % of control under setting [12].
For `Oc1ccc2ccccc2c1/C=N\Sc1ccc(Cl)cc1`, the T/C by setting is: under setting [7], 90 % of control; under setting [8], 91 % of control; under setting [9], 96 % of control.
As to `COc1c2occc2cc2ccc(=O)oc12`, the T/C reads like this: (dose: 8.0 mg/kg/injection, schedule: Q01DX009 (ip), vehicle: saline with Tween-80) 89 % of control; (dose: 11.0 mg/kg/injection, schedule: Q01DX009 (ip), vehicle: saline with Tween-80) 111 % of control; (dose: 16.0 mg/kg/injection, schedule: Q01DX009 (ip), vehicle: saline with Tween-80) 87 % of control; (dose: 22.0 mg/kg/injection, schedule: Q01DX009 (ip), vehicle: saline with Tween-80) 102 % of control; under setting [15], 121 % of control; (dose: 32.0 mg/kg/injection, schedule: Q01DX009 (ip), vehicle: saline with Tween-80) 100 % of control. Also, the T/C runs as follows: (dose: 44.0 mg/kg/injection, schedule: Q01DX009 (ip), vehicle: saline with Tween-80) 104 % of control; under setting [7], 116 % of control; (dose: 64.0 mg/kg/injection, schedule: Q01DX009 (ip), vehicle: saline with Tween-80) 88 % of control; (dose: 88.0 mg/kg/injection, schedule: Q01DX009 (ip), vehicle: saline with Tween-80) 107 % of control; under setting [8], 117 % of control; (dose: 128.0 mg/kg/injection, schedule: Q01DX009 (ip), vehicle: saline with Tween-80) 106 % of control. Also, the T/C (dose: 256.0 mg/kg/injection, schedule: Q01DX009 (ip), vehicle: saline with Tween-80) was 94 % of control.

Values taken from PubChem BioAssay AID330 (DTP/NCI, 2004).
